Target: Aβ42 (Homo sapiens, UniProt P05067)
Assay: Th-T (thioflavin-T) assay of Aβ42 aggregation
Type: biochemical
Settings: for Th-T assay plate reading, mean of three wells (Supplementary Fig. 47): source data, Ab alone and No Ab as controls

Sequence of Aβ42 (P05067 672-713): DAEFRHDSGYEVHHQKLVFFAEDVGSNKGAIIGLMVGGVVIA

C=C1CCC2C(C)(CC(=O)C=C(C)C)C(O)CCC2(C)C1Cc1c(OC)oc(C)c(C)c1=O (centres unmarked) [Compound 25]
Th-T fluorescence, mean of three wells (Aβ42 aggregation time course, reading M117): 3.606 | Th-T fluorescence, mean of three wells (Aβ42 aggregation time course, reading M118): 3.615 | Th-T fluorescence, mean of three wells (Aβ42 aggregation time course, reading M119): 3.596 | Th-T fluorescence, mean of three wells (Aβ42 aggregation time course, reading M120): 3.613 | Th-T fluorescence, mean of three wells (Aβ42 aggregation time course, reading M121): 3.583 | Th-T fluorescence, mean of three wells (Aβ42 aggregation time course, reading M122): 3.577 | Th-T fluorescence, mean of three wells (Aβ42 aggregation time course, reading M123): 3.546 | Th-T fluorescence, mean of three wells (Aβ42 aggregation time course, reading M124): 3.572 | Th-T fluorescence, mean of three wells (Aβ42 aggregation time course, reading M125): 3.555 | Th-T fluorescence, mean of three wells (Aβ42 aggregation time course, reading M126): 3.529 | Th-T fluorescence, mean of three wells (Aβ42 aggregation time course, reading M127): 3.54 | Th-T fluorescence, mean of three wells (Aβ42 aggregation time course, reading M128): 3.504 | Th-T fluorescence, mean of three wells (Aβ42 aggregation time course, reading M129): 3.564 | Th-T fluorescence, mean of three wells (Aβ42 aggregation time course, reading M130): 3.54 | Th-T fluorescence, mean of three wells (Aβ42 aggregation time course, reading M131): 3.5322 | Th-T fluorescence, mean of three wells (Aβ42 aggregation time course, reading M132): 3.554 | Th-T fluorescence, mean of three wells (Aβ42 aggregation time course, reading M133): 3.505 | Th-T fluorescence, mean of three wells (Aβ42 aggregation time course, reading M134): 3.525 | Th-T fluorescence, mean of three wells (Aβ42 aggregation time course, reading M135): 3.538 | Th-T fluorescence, mean of three wells (Aβ42 aggregation time course, reading M136): 3.5303 | Th-T fluorescence, mean of three wells (Supplementary Fig. 47, reading M137): 3.5763 | Th-T fluorescence, mean of three wells (Supplementary Fig. 47, reading M138): 3.512 | Th-T fluorescence, mean of three wells (Supplementary Fig. 47, reading M139): 3.524 | Th-T fluorescence, mean of three wells (Supplementary Fig. 47, reading M140): 3.521 | Th-T fluorescence, mean of three wells (Supplementary Fig. 47, reading M141): 3.497 | Th-T fluorescence, mean of three wells (Supplementary Fig. 47, reading M142): 3.5241 | Th-T fluorescence, mean of three wells (Supplementary Fig. 47, reading M143): 3.477 | Th-T fluorescence, mean of three wells (Supplementary Fig. 47, reading M144): 3.474 | Th-T fluorescence, mean of three wells (Supplementary Fig. 47, reading M145): 3.514 | Th-T fluorescence, mean of three wells (Supplementary Fig. 47 source data, measurement M37 of time course): 3.725 | Th-T fluorescence, mean of three wells (Supplementary Fig. 47 source data, measurement M38 of time course): 3.672 | Th-T fluorescence, mean of three wells (Supplementary Fig. 47 source data, measurement M39 of time course): 3.686 | Th-T fluorescence, mean of three wells (Supplementary Fig. 47 source data, measurement M40 of time course): 3.696 | Th-T fluorescence, mean of three wells (Supplementary Fig. 47 source data, measurement M41 of time course): 3.723 | Th-T fluorescence, mean of three wells (Supplementary Fig. 47 source data, measurement M42 of time course): 3.705 | Th-T fluorescence, mean of three wells (Supplementary Fig. 47 source data, measurement M43 of time course): 3.698 | Th-T fluorescence, mean of three wells (Supplementary Fig. 47 source data, measurement M44 of time course): 3.759 | Th-T fluorescence, mean of three wells (Supplementary Fig. 47 source data, measurement M45 of time course): 3.771 | Th-T fluorescence, mean of three wells (Supplementary Fig. 47 source data, measurement M46 of time course): 3.76 | Th-T fluorescence, mean of three wells (Supplementary Fig. 47 source data, measurement M47 of time course): 3.73 | Th-T fluorescence, mean of three wells (Supplementary Fig. 47 source data, measurement M48 of time course): 3.764 | Th-T fluorescence, mean of three wells (Supplementary Fig. 47 source data, measurement M49 of time course): 3.767 | Th-T fluorescence, mean of three wells (Supplementary Fig. 47 source data, measurement M50 of time course): 3.788 | Th-T fluorescence, mean of three wells (Supplementary Fig. 47 source data, measurement M51 of time course): 3.755 | Th-T fluorescence, mean of three wells (Supplementary Fig. 47 source data, measurement M52 of time course): 3.752 | Th-T fluorescence, mean of three wells (Supplementary Fig. 47 source data, measurement M53 of time course): 3.724 | Th-T fluorescence, mean of three wells (Supplementary Fig. 47 source data, measurement M54 of time course): 3.756 | Th-T fluorescence, mean of three wells (Supplementary Fig. 47 source data, measurement M55 of time course): 3.771 | Th-T fluorescence, mean of three wells (Supplementary Fig. 47 source data, measurement M56 of time course): 3.762 | Th-T assay plate reading, mean of three wells (Supplementary Fig. 47) (measurement M1): 0.2149 | Th-T assay plate reading, mean of three wells (Supplementary Fig. 47) (measurement M2): 0.2276 | Th-T assay plate reading, mean of three wells (Supplementary Fig. 47) (measurement M3): 0.2865 | Th-T assay plate reading, mean of three wells (Supplementary Fig. 47) (measurement M4): 0.3444 | Th-T assay plate reading, mean of three wells (Supplementary Fig. 47) (measurement M5): 0.4109 | Th-T assay plate reading, mean of three wells (Supplementary Fig. 47) (measurement M6): 0.436 | Th-T assay plate reading, mean of three wells (Supplementary Fig. 47) (measurement M7): 0.4804 | Th-T assay plate reading, mean of three wells (Supplementary Fig. 47) (measurement M8): 0.5318 | Th-T assay plate reading, mean of three wells (Supplementary Fig. 47) (measurement M9): 0.5868 | Th-T assay plate reading, mean of three wells (Supplementary Fig. 47) (measurement M10): 0.6365 | Th-T assay plate reading, mean of three wells (Supplementary Fig. 47) (measurement M11): 0.7058 | Th-T assay plate reading, mean of three wells (Supplementary Fig. 47) (measurement M12): 0.8261 | Th-T assay plate reading, mean of three wells (Supplementary Fig. 47) (measurement M13): 1.145 | Th-T assay plate reading, mean of three wells (Supplementary Fig. 47) (measurement M14): 1.723 | Th-T assay plate reading, mean of three wells (Supplementary Fig. 47) (measurement M15): 2.352 | Th-T assay plate reading, mean of three wells (Supplementary Fig. 47) (measurement M16): 2.814 | Th-T fluorescence, mean of three wells (reading M17, Supplementary Fig. 47 source data): 3.101 | Th-T fluorescence, mean of three wells (reading M18, Supplementary Fig. 47 source data): 3.246 | Th-T fluorescence, mean of three wells (reading M19, Supplementary Fig. 47 source data): 3.285 | Th-T fluorescence, mean of three wells (reading M20, Supplementary Fig. 47 source data): 3.357 | Th-T fluorescence, mean of three wells (reading M21, Supplementary Fig. 47 source data): 3.385 | Th-T fluorescence, mean of three wells (reading M22, Supplementary Fig. 47 source data): 3.422 | Th-T fluorescence, mean of three wells (reading M23, Supplementary Fig. 47 source data): 3.453 | Th-T fluorescence, mean of three wells (reading M24, Supplementary Fig. 47 source data): 3.499 | Th-T fluorescence, mean of three wells (reading M25, Supplementary Fig. 47 source data): 3.518 | Th-T fluorescence, mean of three wells (reading M26, Supplementary Fig. 47 source data): 3.525 | Th-T fluorescence, mean of three wells (reading M27, Supplementary Fig. 47 source data): 3.564 | Th-T fluorescence, mean of three wells (reading M28, Supplementary Fig. 47 source data): 3.572 | Th-T fluorescence, mean of three wells (reading M29, Supplementary Fig. 47 source data): 3.591 | Th-T fluorescence, mean of three wells (reading M30, Supplementary Fig. 47 source data): 3.63 | Th-T fluorescence, mean of three wells (reading M31, Supplementary Fig. 47 source data): 3.6544 | Th-T fluorescence, mean of three wells (reading M32, Supplementary Fig. 47 source data): 3.711 | Th-T fluorescence, mean of three wells (reading M33, Supplementary Fig. 47 source data): 3.704 | Th-T fluorescence, mean of three wells (reading M34, Supplementary Fig. 47 source data): 3.671 | Th-T fluorescence, mean of three wells (reading M35, Supplementary Fig. 47 source data): 3.708 | Th-T fluorescence, mean of three wells (reading M36, Supplementary Fig. 47 source data): 3.706 | Th-T fluorescence, mean of three wells (time course, reading M57): 3.709 | Th-T fluorescence, mean of three wells (time course, reading M58): 3.763 | Th-T fluorescence, mean of three wells (time course, reading M59): 3.775 | Th-T fluorescence, mean of three wells (time course, reading M60): 3.734 | Th-T fluorescence, mean of three wells (time course, reading M61): 3.716 | Th-T fluorescence, mean of three wells (time course, reading M62): 3.783 | Th-T fluorescence, mean of three wells (time course, reading M63): 3.7203 | Th-T fluorescence, mean of three wells (time course, reading M64): 3.6972 | Th-T fluorescence, mean of three wells (time course, reading M65): 3.735 | Th-T fluorescence, mean of three wells (time course, reading M66): 3.755 | Th-T fluorescence, mean of three wells (time course, reading M67): 3.725 | Th-T fluorescence, mean of three wells (time-course reading M97, Supplementary Fig. 47 source data): 3.595 | Th-T fluorescence, mean of three wells (time-course reading M98, Supplementary Fig. 47 source data): 3.647 | Th-T fluorescence, mean of three wells (time-course reading M99, Supplementary Fig. 47 source data): 3.679 | Th-T fluorescence, mean of three wells (time-course reading M100, Supplementary Fig. 47 source data): 3.653 | Th-T fluorescence, mean of three wells (time-course reading M101, Supplementary Fig. 47 source data): 3.662 | Th-T fluorescence, mean of three wells (time-course reading M102, Supplementary Fig. 47 source data): 3.581 | Th-T fluorescence, mean of three wells (time-course reading M103, Supplementary Fig. 47 source data): 3.611 | Th-T fluorescence, mean of three wells (time-course reading M104, Supplementary Fig. 47 source data): 3.626 | Th-T fluorescence, mean of three wells (time-course reading M105, Supplementary Fig. 47 source data): 3.605 | Th-T fluorescence, mean of three wells (time-course reading M106, Supplementary Fig. 47 source data): 3.616 | Th-T fluorescence, mean of three wells (time-course reading M107, Supplementary Fig. 47 source data): 3.656 | Th-T fluorescence, mean of three wells (time-course reading M108, Supplementary Fig. 47 source data): 3.6 | Th-T fluorescence, mean of three wells (time-course reading M109, Supplementary Fig. 47 source data): 3.632 | Th-T fluorescence, mean of three wells (time-course reading M110, Supplementary Fig. 47 source data): 3.606 | Th-T fluorescence, mean of three wells (time-course reading M111, Supplementary Fig. 47 source data): 3.628 | Th-T fluorescence, mean of three wells (time-course reading M112, Supplementary Fig. 47 source data): 3.629 | Th-T fluorescence, mean of three wells (time-course reading M113, Supplementary Fig. 47 source data): 3.58 | Th-T fluorescence, mean of three wells (time-course reading M114, Supplementary Fig. 47 source data): 3.62 | Th-T fluorescence, mean of three wells (time-course reading M115, Supplementary Fig. 47 source data): 3.596 | Th-T fluorescence, mean of three wells (time-course reading M116, Supplementary Fig. 47 source data): 3.5953

Reference: article PMC7156458, “Synthetic biology based construction of biological activity-related library of fungal decalin-containing diterpenoid pyrones” (Nature Communications, 2020)
